Assay results as given in ChEMBL document CHEMBL1146541, “New cytotoxic indolic metabolites from a marine Streptomyces” (2003).
The source made the active and inactive calls.

How the values were obtained:
K562 = assay: Cytotoxicity against human K562 cells; format: functional
LNCaP = assay: Cytotoxicity against human LNCAP cells; format: functional, cell-based
HMEC-1 = assay: Cytotoxicity against human HMEC1 cells; format: functional, cell-based
LoVo [1] = assay: Cytotoxicity against human LoVo cells; format: functional, cell-based
PANC-1 = assay: Cytotoxicity against human PANC1 cells; format: functional, cell-based
LoVo [2] = assay: Cytotoxicity against doxorubicin-resistant human LoVo cells; format: functional, cell-based

Measured: Activity

CC(C)=CCc1ccc2c(CC#N)c[nH]c2c1
inactive: all assays above
